Key:
[1] = tested on: wildtype Wnt signaling cascade; assay: HEK293 TOP assay (Super TopFlash luciferase reporter, Wnt-3a stimulated); type: cell-based; settings: Homo sapiens, HEK293, 16 h, HEK293 TOP reporter cells, Wnt3a at EC50, 16 hours
How it was run: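 Compound series (50 μM down to 15 nM, 3.16-fold) diluted from DMSO 50-fold into CAFTY buffer, pH 7.4, 2 mM Ca^2+, 0.01% BSA, applied to Wnt-3a-stimulated HEK293 TopFlash and FOP reporter lines in parallel. Cells seeded 10000/well 24 h before; luciferase signal measured.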

[2] = tested on: HEK293 cells cotransfected with the FOP control vector; assay: HEK293 FOP assay (control reporter with non-functional TCF elements); type: cell-based; settings: Homo sapiens, 16 hours
How it was run: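 Compound series from 50 μM down to 15 nM, prediluted in DMSO then 50-fold into CAFTY buffer (pH 7.4, 2 mM Ca2+, 0.01% BSA), tested alongside TOP cells on a Geneticin-selected HEK293 FOP line whose TCF elements are replaced by a random sequence; recombinant human Wnt-3a applied at 2500-5 ng/ml.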

TNKS2 = biological target: T1, TNKS2 (Homo sapiens, UniProt Q9H2K2); assay: TNKS2 Assay B (auto-parsylation, [3H]-NAD+ SPA); type: biochemical; settings: 6 nM TNKS2, auto-parsylation, over night at room temperature
T1 construct: purchased BPS Bioscience, San Diego, USA 80572 (TNKS2 Histone Ribosylation Assay Kit)
T1 sequence (Q9H2K2 1-1166): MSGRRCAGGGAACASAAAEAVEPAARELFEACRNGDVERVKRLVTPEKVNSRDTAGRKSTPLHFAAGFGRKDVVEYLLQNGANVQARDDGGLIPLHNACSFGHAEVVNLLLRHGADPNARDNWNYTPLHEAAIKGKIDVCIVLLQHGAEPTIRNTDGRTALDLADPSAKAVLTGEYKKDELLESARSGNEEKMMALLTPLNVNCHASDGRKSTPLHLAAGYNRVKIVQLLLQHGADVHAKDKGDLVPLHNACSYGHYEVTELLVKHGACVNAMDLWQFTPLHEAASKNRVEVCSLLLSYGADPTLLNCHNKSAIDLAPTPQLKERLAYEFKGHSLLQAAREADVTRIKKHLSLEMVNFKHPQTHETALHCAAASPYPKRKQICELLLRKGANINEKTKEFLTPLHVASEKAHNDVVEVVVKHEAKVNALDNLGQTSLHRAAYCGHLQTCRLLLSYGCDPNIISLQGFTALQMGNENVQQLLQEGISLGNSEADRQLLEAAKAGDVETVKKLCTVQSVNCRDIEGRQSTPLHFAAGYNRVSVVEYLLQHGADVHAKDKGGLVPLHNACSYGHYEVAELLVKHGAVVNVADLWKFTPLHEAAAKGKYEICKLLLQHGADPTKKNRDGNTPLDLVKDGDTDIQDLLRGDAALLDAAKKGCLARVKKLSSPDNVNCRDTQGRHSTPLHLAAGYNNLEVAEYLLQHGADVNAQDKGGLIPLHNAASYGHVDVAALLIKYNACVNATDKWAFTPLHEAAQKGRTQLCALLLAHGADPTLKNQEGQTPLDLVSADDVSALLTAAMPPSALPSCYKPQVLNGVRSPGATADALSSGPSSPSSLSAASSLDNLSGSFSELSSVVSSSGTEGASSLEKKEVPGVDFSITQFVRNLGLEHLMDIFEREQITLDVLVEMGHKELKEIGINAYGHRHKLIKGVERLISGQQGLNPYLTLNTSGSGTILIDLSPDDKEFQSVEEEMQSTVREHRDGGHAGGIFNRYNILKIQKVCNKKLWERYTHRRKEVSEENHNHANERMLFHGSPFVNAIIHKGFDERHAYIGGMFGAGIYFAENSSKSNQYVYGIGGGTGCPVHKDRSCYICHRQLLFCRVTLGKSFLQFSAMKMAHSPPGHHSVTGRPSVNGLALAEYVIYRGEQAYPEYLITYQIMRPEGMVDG

| Compound | IC50 [1] | IC50 [2] | IC50 (TNKS2) |
| --- | --- | --- | --- |
| CC(C)(O)CNC(=O)c1nc[nH]c1C(=O)N[C@H]1CC[C@H](C(=O)Nc2cc(C(F)(F)F)ccc2Cl)CC1 [Example 145, N^5-(trans-4-{[2-chloro-5-(trifluoromethyl)phenyl]carbamoyl}cyclohexyl)-N^4-(2-hydroxy-2-methylpropyl)-1H-imidazole-4,5-dicarboxamide] | 150 nM | 15000 nM | 280 nM |
| O=C(NCC1CCCO1)c1nc[nH]c1C(=O)N[C@H]1CC[C@H](C(=O)Nc2cc(C(F)(F)F)ccc2Cl)CC1 (stereo partly drawn) [Example 146, N^5-(trans-4-{[2-chloro-5-(trifluoromethyl)phenyl]carbamoyl}cyclohexyl)-N^4-(tetrahydrofuran-2-ylmethyl)-1H-imidazole-4,5-dicarboxamide] | 720 nM | 29000 nM | 100 nM |
| CNC(=O)c1nc[nH]c1C(=O)N[C@H]1CC[C@H](C(=O)Nc2ncncc2Cl)CC1 [Example 147, N^5-{trans-4-[(5-chloropyrimidin-4-yl)carbamoyl]cyclohexyl}-N^4-methyl-1H-imidazole-4,5-dicarboxamide] | 54 nM | ≥ 50000 nM | 77 nM |
| O=C(N[C@H]1CC[C@]2(CCN(c3ccc(F)cc3Cl)C2=O)CC1)c1cnn2cccnc12 [Example 148, N-[(cis)-2-(2-chloro-4-fluorophenyl)-1-oxo-2-azaspiro[4.5]dec-8-yl]pyrazolo[1,5-a]pyrimidine-3-carboxamide] | 140 nM | ≥ 50000 nM | 1300 nM |
| O=C(N[C@H]1CC[C@H](C(=O)Nc2cnc(C(F)(F)F)cc2Cl)CC1)c1cnn2cccnc12 [Example 149, N-(trans-4-{[4-chloro-6-(trifluoromethyl)pyridin-3-yl]carbamoyl}cyclohexyl)pyrazolo[1,5-a]pyrimidine-3-carboxamide] | 190 nM | ≥ 50000 nM | 170 nM |
| Cc1cc(NC(=O)[C@H]2CC[C@H](NC(=O)c3cnn4cccnc34)CC2)c(Cl)cc1F [Example 150, N-{trans-4-[(2-chloro-4-fluoro-5-methylphenyl)carbamoyl]cyclohexyl}pyrazolo[1,5-a]pyrimidine-3-carboxamide] | 80 nM | ≥ 50000 nM | 35 nM |
| Cc1cc(F)cc(Cl)c1NC(=O)[C@H]1CC[C@H](NC(=O)c2cnn3cccnc23)CC1 [Example 151, N-{trans-4-[(2-chloro-4-fluoro-6-methylphenyl)carbamoyl]cyclohexyl}pyrazolo[1,5-a]pyrimidine-3-carboxamide] | 110 nM | ≥ 50000 nM | 150 nM |
| CCN(c1ccc(F)cc1Cl)C(=O)[C@H]1CC[C@H](NC(=O)c2cnn3cccnc23)CC1 [Example 154, N-{trans-4-[(2-chloro-4-fluorophenyl)(ethyl)carbamoyl]cyclohexyl}pyrazolo[1,5-a]pyrimidine-3-carboxamide] | 130 nM | ≥ 50000 nM | 57 nM |
| CN(c1ccc(F)cc1Cl)C(=O)[C@H]1CC[C@H](NC(=O)c2cnn3cccnc23)CC1 [Example 155, N-{trans-4-[(2-chloro-4-fluorophenyl)(methyl)carbamoyl]cyclohexyl}pyrazolo[1,5-a]pyrimidine-3-carboxamide] | 130 nM | ≥ 50000 nM | 91 nM |
| CN(c1ccccc1)C(=O)[C@H]1CC[C@H](NC(=O)c2cnn3cccnc23)CC1 [Example 156, N-{trans-4-[methyl(phenyl)carbamoyl]cyclohexyl}pyrazolo[1,5-a]pyrimidine-3-carboxamide] | 190 nM | ≥ 50000 nM | 230 nM |
| CNC(=O)c1nc[nH]c1C(=O)N[C@H]1CC[C@H](C(=O)N(CCO)c2ccc(F)cc2Cl)CC1 [Example 157, N^5-{trans-4-[(2-chloro-4-fluorophenyl)(2-hydroxyethyl)carbamoyl]cyclohexyl}-N^4-methyl-1H-imidazole-4,5-dicarboxamide] | 8300 nM | ≥ 50000 nM | 280 nM |
| CC1CCN(CCNC(=O)c2nc[nH]c2C(=O)N[C@H]2CC[C@@]3(CCN(c4ccc(F)cc4Cl)C3=O)CC2)CC1 [Example 160, N^5-[(trans)-2-(2-chloro-4-fluorophenyl)-1-oxo-2-azaspiro[4.5]dec-8-yl]-N^4-[2-(4-methylpiperidin-1-yl)ethyl]-1H-imidazole-4,5-dicarboxamide] | 13 nM | ≥ 50000 nM | 3.4 nM |
| O=C(NCCN1CCCCC1)c1nc[nH]c1C(=O)N[C@H]1CC[C@@]2(CCN(c3ccc(F)cc3Cl)C2=O)CC1 [Example 161, N^5-[(trans)-2-(2-chloro-4-fluorophenyl)-1-oxo-2-azaspiro[4.5]dec-8-yl]-N^4-[2-(piperidin-1-yl)ethyl]-1H-imidazole-4,5-dicarboxamide] | 55 nM | ≥ 50000 nM | 1.6 nM |
| CC(C)NC(=O)c1nc[nH]c1C(=O)N[C@H]1CC[C@@]2(CCN(c3ccc(F)cc3Cl)C2=O)CC1 [Example 162, N^5-[(trans)-2-(2-chloro-4-fluorophenyl)-1-oxo-2-azaspiro[4.5]dec-8-yl]-N^4-isopropyl-1H-imidazole-4,5-dicarboxamide] | 9.4 nM | 40000 nM | 8.2 nM |
| COCCNC(=O)c1nc[nH]c1C(=O)N[C@H]1CC[C@@]2(CCN(c3ccc(F)cc3Cl)C2=O)CC1 [Example 163, N^5-[(trans)-2-(2-chloro-4-fluorophenyl)-1-oxo-2-azaspiro[4.5]dec-8-yl]-N^4-(2-methoxyethyl)-1H-imidazole-4,5-dicarboxamide] | 2.4 nM | ≥ 50000 nM | 5.9 nM |
| O=C(NC1CC1)c1nc[nH]c1C(=O)N[C@H]1CC[C@@]2(CCN(c3ccc(F)cc3Cl)C2=O)CC1 [Example 165, N^5-[(trans)-2-(2-chloro-4-fluorophenyl)-1-oxo-2-azaspiro[4.5]dec-8-yl]-N^4-cyclopropyl-1H-imidazole-4,5-dicarboxamide] | 3.8 nM | 35000 nM | 6.3 nM |
| O=C(N[C@H]1CC[C@@]2(CCN(c3ccc(F)cc3Cl)C2=O)CC1)c1[nH]cnc1C(=O)N1CC(F)C1 [Example 166, N-[(trans)-2-(2-chloro-4-fluorophenyl)-1-oxo-2-azaspiro[4.5]dec-8-yl]-4-[(3-fluoroazetidin-1-yl)carbonyl]-1H-imidazole-5-carboxamide] | 0.69 nM | ≥ 50000 nM | 2.6 nM |
